Active and inactive are the calls of the source. No cut-off for these calls is given here.
Tests used:
[1] = tested on: HCC827; assay: Induction of apoptosis in RICTOR-upregulated human HCC827 cells; format: functional, cell-based
[2] = tested on: HCC827; assay: Induction of apoptosis in erlotinib-resistant human HCC827 cells with RICTOR-knockdown; format: functional, cell-based
[3] = tested on: PC-9; assay: Antiproliferative activity against doxycycline-induced RICTOR-knockdown human PC-9 cells; format: functional, cell-based
[4] = tested on: HCC827; assay: Antiproliferative activity against doxycycline-induced RICTOR-knockdown human HCC827 cells; format: functional, cell-based
[5] = tested on: NCI-H1703; assay: Inhibition of RICTOR-amplified human NCI-H1703 cells invasion; format: functional, cell-based
[6] = tested on: NCI-H1703; assay: Inhibition of RICTOR-amplified human NCI-H1703 cells migration; format: functional, cell-based
[7] = tested on: NCI-H23; assay: Inhibition of RICTOR-amplified human NCI-H23 cells invasion; format: functional, cell-based
[8] = tested on: NCI-H23; assay: Inhibition of RICTOR-amplified human NCI-H23 cells migration; format: functional, cell-based
[9] = tested on: PC-9; assay: Down-regulation of Axl in RICTOR-knockdown human PC-9 cells assessed as half-life of Axl; format: functional, cell-based
[10] = tested on: HCC827; assay: Antitumor activity against erlotinib-resistant doxycycline-induced RICTOR-knockdown human HCC827 cells xenografted in mouse assessed as inhibition of tumor growth; format: functional, cell-based
[11] = tested on: HCC827; assay: Antitumor activity against erlotinib-resistant doxycycline-induced RICTOR-knockdown human HCC827 cells xenografted in mouse assessed as decrease in Axl expression; format: functional, cell-based
[12] = tested on: HCC827; assay: Antiproliferative activity against erlotinib-resistant doxycycline-induced RICTOR-knockdown human HCC827 cells assessed as fold decrease in compound IC50; format: functional
[13] = tested on: HCC827; assay: Inhibition of RICTOR-upregulated human HCC827 cell migration; format: functional, cell-based
[14] = tested on: NCI-H23; assay: Antitumor activity against RICTOR-knockdown human NCI-H23 cells xenografted in mouse assessed as inhibition of tumor growth; format: functional
[15] = tested on: HCC827; assay: Inhibition of RICTOR-upregulated human HCC827 cell invasion; format: functional, cell-based

SMILES | Activity [3] | Activity [4] | inhibition [5] | inhibition [6] | inhibition [7] | inhibition [8] | other results
C=CC(=O)Nc1cc(Nc2nccc(-c3cn(C)c4ccccc34)n2)c(OC)cc1N(C)CCN(C)C | Active | – | – | – | – | – | Activity [1]: inactive; Activity [2]: Active
CN(C)C/C=C/C(=O)Nc1cc2c(Nc3ccc(F)c(Cl)c3)ncnc2cc1O[C@H]1CCOC1 | – | Active | – | – | – | – | –
CNC(=O)c1cccc(-c2ccc3c(N4CCOC[C@@H]4C)nc(N4CCOC[C@@H]4C)nc3n2)c1 | – | – | Active | Active | Active | Active | –
C[C@@H]1C[C@@H]([C@H](O)CC2CC(=O)NC(=O)C2)C(=O)[C@@H](C)C1 | – | – | – | – | – | – | T1/2 [9]: 3.2 h
C#Cc1cccc(Nc2ncnc3cc(OCCOC)c(OCCOC)cc23)c1 [ERLOTINIB] | Active | Active | – | – | – | – | Activity [10]: Active; Activity [11]: Active; fold change (FC) [12]: 1000
CC(C)n1nc(-c2ccc3oc(N)nc3c2)c2c(N)ncnc21 [SAPANISERTIB] | – | – | Active | Active | Active | Active | inhibition [13]: Active; TGI [14]: 75%; inhibition [15]: Active
